Data on 1 compound can be found in ChEMBL document CHEMBL4828722, “The synthesis and bioactivity of pyrrolo[2,3-d]pyrimidine derivatives as tyrosine kinase inhibitors for NSCLC cells with EGFR mutations” (Eur J Med Chem, 2021).

Data set [1] in a line: Potency index, ratio of avitinib IC50 to test compound IC50 for cytotoxicity against human BEAS-2B cells assessed as reduction in cell viability measured after 48 hrs by CCK8 assay. Format: cell-based. Conditions: read-out: Ratio IC50. (Tetrazolium dyes change colour on reduction, which living cells bring about.)
Data set [2] is described as follows: Potency index, ratio of avitinib IC50 to test compound IC50 for cytotoxicity against human HBE cells assessed as reduction in cell viability measured after 48 hrs by CCK8 assay. Format: cell-based. Conditions: read-out: Ratio IC50.
Data set [3] in a line: Selectivity index, ratio of IC50 for cytotoxicity against human NCI-H460 cells harboring wild type EGFR to IC50 for cytotoxicity against human HCC827 cells harboring EGFR del E746-A750 mutant assessed as reduction in cell viability measured after 48 hrs by CCK8 assay.
A short description of data set [4]: Selectivity index, ratio of IC50 for cytotoxicity against human HBE cells to IC50 for cytotoxicity against human HCC827 cells harboring EGFR del E746-A750 mutant assessed as reduction in cell viability measured after 48 hrs by CCK8 assay.

Regarding `C=CC(=O)Nc1cccc(Oc2nc(Nc3ccc(N4CCN(C)CC4)c(N)c3)nc3[nH]ccc23)c1`, the selectivity ratio at 48 h in data set [1] and in data set [2] was 2 in each case. Also, the “Selectivity Index” value is listed as 579.7 in data set [3] and 493 in data set [4].
